Patent US20220281821A1, “INDAZOLE COMPOUNDS AND THEIR PHARMACEUTICAL COMPOSITIONS” (Jinan University, priority 2019, published 2022)

What was measured:
Assay type in all cases: cell-based, mouse
BaF3-CD74-NTRK1 = target: T1, BaF3-CD74-NTRK1 (Homo sapiens, UniProt P04629); assay: Cell proliferation inhibition (CCK-8), BaF3-CD74-NTRK1 stable strain; conditions: BaF3-CD74-NTRK1, 72 hours
T1 construct: fused on or other part: P04233 (HLA class II histocompatibility antigen gamma chain)
Experimental: (§1) The brief steps of stable strain construction are as follows: construct a pCDNA3.1(+) plasmid vector carrying genes such as CD74-NTRK1, ETV6-NTRK2 and ETV6-NTRK3; the plasmid was electroporated into Ba/F3 cells using the Amaxa® Cell Line Nucleofector® Kit V; 48 hours after electroporated, G418 with a final concentration of 1000 μg/ml was added for screening for two weeks, and then IL3 was removed, and continued screening to obtain polyclonal stable strains; then single clones were selected by a limiting dilution method. The stable strains were then identified using positive drugs, WB and gene sequencing; and the monoclonal clones that were identified as completely correct may be used for the study of cell proliferation inhibitory activity of inhibitors.
(§2) Cell proliferation inhibition activity study: the cells in the logarithmic growth phase were seeded into 96-well plates at 8000-12000 cells/well, and inhibitors at different concentrations (0-10 μM) were added the next day, and incubation was continued for 72 hours; then 10 μL of CCK-8 reagent was added to each well, and the incubation was continued for 1-3 hours; and then use a super microplate reader to measure their absorbance values at 450 nm and 650 nm. The half-inhibition concentration (IC50) was calculated using GraphPad Prism 8.0.0.

BaF3-ETV6-NTRK2 = target: T2, BaF3-ETV6-NTRK2 (Homo sapiens, UniProt Q16620); assay: Cell proliferation inhibition (CCK-8), BaF3-ETV6-NTRK2 stable strain; conditions: BaF3-ETV6-NTRK2, 72 hours
T2 construct: fused on or other part: P41212 (Transcription factor ETV6)
T2 sequence (Q16620 538-822 limits assumed): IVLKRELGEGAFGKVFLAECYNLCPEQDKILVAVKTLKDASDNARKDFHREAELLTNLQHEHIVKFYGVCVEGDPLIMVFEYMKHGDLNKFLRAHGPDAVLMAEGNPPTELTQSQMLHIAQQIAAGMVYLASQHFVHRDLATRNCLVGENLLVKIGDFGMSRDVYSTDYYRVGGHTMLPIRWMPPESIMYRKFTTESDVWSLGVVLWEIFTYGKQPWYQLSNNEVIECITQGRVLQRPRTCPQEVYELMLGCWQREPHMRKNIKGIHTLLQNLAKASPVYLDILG
Experimental: as §1, §2

BaF3-ETV6-NTRK3 = target: T3, BaF3-ETV6-NTRK3 (Homo sapiens, UniProt Q16288); assay: Cell proliferation inhibition (CCK-8), BaF3-ETV6-NTRK3 stable strain; conditions: BaF3-ETV6-NTRK3, 72 hours
T3 construct: fused on or other part: P41212 (Transcription factor ETV6)
T3 sequence (Q16288 whole entry, the tested form may be a part): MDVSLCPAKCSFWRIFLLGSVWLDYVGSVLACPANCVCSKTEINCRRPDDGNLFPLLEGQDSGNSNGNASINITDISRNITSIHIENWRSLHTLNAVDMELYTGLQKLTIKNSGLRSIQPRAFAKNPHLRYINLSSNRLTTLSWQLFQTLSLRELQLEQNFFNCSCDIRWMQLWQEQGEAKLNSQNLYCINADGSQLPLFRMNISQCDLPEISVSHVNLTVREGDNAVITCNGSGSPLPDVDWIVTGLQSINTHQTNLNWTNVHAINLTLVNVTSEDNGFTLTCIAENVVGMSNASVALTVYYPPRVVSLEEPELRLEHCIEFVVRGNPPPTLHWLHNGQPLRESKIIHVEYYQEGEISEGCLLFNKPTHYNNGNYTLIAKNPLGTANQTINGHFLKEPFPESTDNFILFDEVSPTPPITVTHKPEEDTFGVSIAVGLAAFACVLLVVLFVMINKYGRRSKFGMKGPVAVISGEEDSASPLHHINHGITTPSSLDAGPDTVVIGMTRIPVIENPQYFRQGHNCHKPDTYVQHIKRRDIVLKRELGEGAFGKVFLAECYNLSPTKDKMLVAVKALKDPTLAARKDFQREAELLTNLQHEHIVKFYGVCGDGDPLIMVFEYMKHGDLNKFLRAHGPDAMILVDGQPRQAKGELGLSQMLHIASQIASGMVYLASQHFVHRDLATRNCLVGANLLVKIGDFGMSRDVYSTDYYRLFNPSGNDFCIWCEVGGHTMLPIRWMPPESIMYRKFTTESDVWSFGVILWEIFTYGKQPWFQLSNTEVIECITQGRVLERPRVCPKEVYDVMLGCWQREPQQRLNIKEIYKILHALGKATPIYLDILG
Experimental: as §1, §2

T1 sequence (P04629 510-796 limits assumed): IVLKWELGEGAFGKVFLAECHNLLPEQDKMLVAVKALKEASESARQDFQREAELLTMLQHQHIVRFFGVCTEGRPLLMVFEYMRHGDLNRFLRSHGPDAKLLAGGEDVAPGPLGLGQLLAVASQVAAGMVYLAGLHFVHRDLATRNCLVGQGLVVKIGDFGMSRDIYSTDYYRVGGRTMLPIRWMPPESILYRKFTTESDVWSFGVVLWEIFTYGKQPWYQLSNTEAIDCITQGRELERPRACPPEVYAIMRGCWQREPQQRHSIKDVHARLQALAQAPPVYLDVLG

| SMILES | IC50 (BaF3-CD74-NTRK1) [nM] | IC50 (BaF3-ETV6-NTRK2) [nM] | IC50 (BaF3-ETV6-NTRK3) [nM] |
| --- | --- | --- | --- |
| N#CCn1cc(/C=C/c2n[nH]c3ccc(NS(=O)(=O)c4cc(F)cc(F)c4)cc23)cn1 [CHW-1, (E)-N-(3-(2-(1-(cyanomethyl)-1H-pyrazol-4-yl)vinyl)-1H-indazol-5-yl)-3,5-difluorobenzene sulfonamide] | 35.5 | 43.1 | 39.2 |
| Fc1ccccc1CNc1ccc2[nH]nc(/C=C/c3ccccn3)c2c1 [DYX-413, (E)-N-(2-fluorobenzyl)-3-(2-(pyridin-2-yl)vinyl)-1H-indazol-5-amine] | 40.8 | 376 | 161 |
| O=S(=O)(c1cc(F)cc(F)c1)c1ccc2[nH]nc(/C=C/c3ccccc3)c2c1 [Example E01F07, (E)-5-((3,5-difluorophenyl)sulfonyl)-3-styryl-1H-indazole] | 35.8 | 441 | 92.9 |
| Cc1cc(F)cc(CNc2ccc3[nH]nc(/C=C/c4ccccn4)c3c2)c1 [DYX-401, (E)-N-(3-fluoro-5-methylbenzyl)-3-(2-(pyridin-2-yl)vinyl)-1H-indazol-5-amine] | 113 | 448 | 112 |
| CC(C)(C)NC(=O)/C=C/c1n[nH]c2ccc(NCc3cc(F)cc(F)c3)cc12 [DYX-230, (E)-N-tert-butyl-3-(5-((3,5-difluorobenzyl)amino)-1H-indazol-3-yl)acrylamide] | 682 | 303 | 359 |
| CCn1cc(/C=C/c2n[nH]c3ccc(NS(=O)(=O)c4cc(F)cc(F)c4)cc23)cn1 [Example D5218, (E)-3,5-difluoro-N-(3-(2-(1-ethyl-1H-pyrazol-4-yl)vinyl)-1H-indazol-5-yl)benzenesulfonamide] | 10.6 | 19.1 | 14.1 |
| O=S(=O)(Nc1ccc2[nH]nc(/C=C/c3cn[nH]c3)c2c1)c1cc(F)cc(F)c1 [Example D5220, (E)-3,5-difluoro-N-(3-(2-(1H-pyrazol-4-yl)vinyl)-1H-indazol-5-yl)benzenesulfonamide] | 120 | 215 | 175 |
| O=C(/C=C/c1n[nH]c2ccc(NCc3cc(F)cc(F)c3)cc12)N1CC[C@H](O)C1 [DYX-228, (S,E)-3-(5-((3,5-difluorobenzyl)amino)-1H-indazol-3-yl)-1-(3-hydroxylpyrrolidin-1-yl)prop-2-en-1-one] | 11.9 | 20.5 | 11.6 |
| CN(C)C(=O)Cn1cc(/C=C/c2n[nH]c3ccc(NS(=O)(=O)c4cc(F)cc(F)c4)cc23)cn1 [CHW-10, (E)-2-(4-(2-(5-((3,5-difluorophenyl)sulfonamido)-1H-indazol-3-yl)vinyl)-1H-pyrazol-1-yl)-N,N-dimethylacetamide] | 274 | 439 | 390 |
| N#Cc1cc(F)cc(CNc2ccc3[nH]nc(/C=C/c4ccccn4)c3c2)c1 [DYX-402, (E)-3-fluoro-5-(((3-(2-(pyridin-2-yl)vinyl)-1H-indazol-5-yl)amino)methyl)benzonitrile] | 28.2 | 53.5 | 22.6 |
| Fc1cc(Br)cc(CNc2ccc3[nH]nc(/C=C/c4ccccn4)c3c2)c1 [DYX-415, (E)-N-(3-bromo-5-fluorobenzyl)-3-(2-(pyridin-2-yl)vinyl)-1H-indazol-5-amine] | 50.8 | 510 | 156 |
| Fc1cc(CNc2ccc3[nH]nc(/C=C/c4ccccn4)c3c2)cc(C(F)(F)F)c1 [DYX-414, (E)-N-(3-fluoro-5-(trifluoromethyl)benzyl)-3-(2-(pyridin-2-yl)vinyl)-1H-indazol-5-amine] | 196 | 2520 | 1180 |
| COc1cc(F)cc(Cc2ccc3[nH]nc(/C=C/c4ccccn4)c3c2)c1 [Example D05F01, (E)-5-(3-fluoro-5-methoxybenzyl)-3-(2-(pyridin-2-yl)vinyl)-1H-indazole] | 203 | 462 | 367 |
| C[C@@H](Nc1ccc2[nH]nc(/C=C/c3ccccc3)c2c1)c1cc(F)cc(F)c1 [DYX-412, (R,E)-N-(1-(3,5-difluorophenyl)ethyl)-3-styryl-1H-indazol-5-amine] | 110 | 115 | 35.6 |
| CC(C)OCCn1cc(/C=C/c2n[nH]c3ccc(NS(=O)(=O)c4cc(F)cc(F)c4)cc23)cn1 [CHW-12] | 33.8 | 55.8 | 48.1 |
| O=S(=O)(Nc1ccc2[nH]nc(/C=C/c3cccnc3)c2c1)c1cc(F)cc(F)c1 [CHW-8, (E)-3,5-difluoro-N-(3-(2-(pyridin-3-yl)vinyl)-1H-indazol-5-yl)benzenesulfonamide] | 143 | 248 | 174 |

| SMILES | IC50 (BaF3-CD74-NTRK1) [nM] | IC50 (BaF3-ETV6-NTRK2) [nM] | IC50 (BaF3-ETV6-NTRK3) [nM] |
| --- | --- | --- | --- |
| O=C(/C=C/c1n[nH]c2ccc(NCc3cc(F)cc(F)c3)cc12)N1CCOCC1 [DYX-222, (E)-3-(5-((3,5-difluorobenzyl)amino)-1H-indazol-3-yl)-1-morpholinoprop-2-en-1-one] | 37.3 | 54.7 | 41.5 |
| Cc1cc(C)cc(Cc2ccc3[nH]nc(/C=C/c4ccccn4)c3c2)c1 [Example D07F01, (E)-5-(3,5-dimethylbenzyl)-3-(2-(pyridin-2-yl)vinyl)-1H-indazole] | 2310 | 3020 | 2040 |
| C[C@@H](Nc1ccc2[nH]nc(/C=C/c3cnn(CCO)c3)c2c1)c1cccc(F)c1 [DYX-335, (R,E)-2-(4-(2-(5-((1-(3-fluorophenyl)ethyl)amino)-1H-indazol-3-yl)vinyl)-1H-pyrazol-1-yl)-1-ethanol] | 0.6 | 10.7 | 3.3 |
| Fc1ccc(CNc2ccc3[nH]nc(/C=C/c4ccccn4)c3c2)cc1 [DYX-417, (E)-N-(4-fluorobenzyl)-3-(2-(pyridin-2-yl)vinyl)-1H-indazol-5-amine] | 158 | 2530 | 579 |
| O=S(=O)(Nc1ccc2[nH]nc(/C=C/c3cnn(CC(F)(F)F)c3)c2c1)c1cc(F)cc(F)c1 [CHW-3] | 92 | 165 | 123 |
| O=S(=O)(Nc1ccc2[nH]nc(/C=C/c3ccccn3)c2c1)c1cccc(F)c1 [CHW-5, (E)-3-fluoro-N-(3-(2-(pyridin-2-yl)vinyl)-1H-indazol-5-yl)benzene sulfonamide] | 27.3 | 70.1 | 59.5 |
| C[C@@H](Nc1ccc2[nH]nc(/C=C/c3ccccn3)c2n1)c1cc(F)cc(F)c1 [DYX-332, (R,E)-N-(1-(3,5-difluorophenyl)ethyl)-3-(2-(pyridin-2-yl)vinyl)-1H-pyrazolo[4,3-b]pyridin-5-amine] | 9.9 | 146 | 46.5 |
| C[C@@H](Nc1ccc2[nH]nc(/C=C/c3ccncc3)c2c1)c1cc(F)cc(F)c1 [DYX-410, (R,E)-N-(1-(3,5-difluorophenyl)ethyl)-3-(2-(pyridin-4-yl)vinyl)-1H-indazol-5-amine] | 10.3 | 11.7 | 3.5 |
| Fc1cc(Cl)cc(CNc2ccc3[nH]nc(/C=C/c4ccccn4)c3c2)c1 [DYX-400, (E)-N-(3-fluoro-5-chlorobenzyl)-3-(2-(pyridin-2-yl)vinyl)-1H-indazol-5-amine] | 59 | 154 | 41.1 |
| Fc1cc(Cl)cc(Cc2ccc3[nH]nc(/C=C/c4ccccn4)c3c2)c1 [Example D02F01, (E)-5-(3-chloro-5-fluorobenzyl)-3-(2-(pyridin-2-yl)vinyl)-1H-indazole] | 204 | 362 | 151 |
| CNC(=O)Cn1cc(/C=C/c2n[nH]c3ccc(NS(=O)(=O)c4cc(F)cc(F)c4)cc23)cn1 [CHW-14, (E)-2-(4-(2-(5-((3,5-difluorophenyl)sulfonamido)-1H-indazol-3-yl)vinyl)-1H-pyrazol-1-yl)-N-methylacetamide] | 331 | 427 | 350 |
| O=S(=O)(Nc1ccc2[nH]nc(/C=C/c3cnn(CCO)c3)c2c1)c1cc(F)cc(F)c1 [Example D5221, (E)-3,5-difluoro-N-(3-{2-[1-(2-hydroxyl-ethyl)-1H-pyrazol-4-yl]-vinyl}-1H-indazol-5-yl)-benzenesulfonamide] | 144 | 196 | 128 |
| COc1ccc(F)cc1Cc1ccc2[nH]nc(/C=C/c3ccccn3)c2c1 [Example D09F01, (E)-5-(5-fluoro-2-methoxybenzyl)-3-(2-(pyridin-2-yl)vinyl)-1H-indazole] | 40.6 | 56.1 | 18.1 |
| C[C@@H](Nc1ccc2[nH]nc(/C=C/c3cnccn3)c2c1)c1cc(F)cc(F)c1 [DYX-411, (R,E)-N-(1-(3,5-difluorophenyl)ethyl)-3-(2-(pyrazin-2-yl)vinyl)-1H-indazol-5-amine] | 35.7 | 38 | 11 |
| O=S(=O)(Nc1ccc2[nH]nc(/C=C/c3cnn(CC(F)F)c3)c2c1)c1cc(F)cc(F)c1 [CHW-6] | 23 | 60.1 | 53.5 |
